US8012939B2 (Tibotec Pharmaceuticals Ltd. Co, priority 2005, dated 2011)
Where two headings read alike, the source gives them in different places.

Key:
[1] = rcm bond, Hoveyda-Grubbs 1st generation catalyst, 1,2-dichloroethane, 70.0 °C
[2] = molecular target: T1, HCV NS3/4A protease complexes (full-length hepatitis C NS3 protease enzyme with NS4A cofactor) (Hepatitis C virus genotype 1a, UniProt P27958); test: Inhibition assay (enzymatic assay, depsipeptide substrate hydrolysis); format: biochemical; conditions: enzyme 1 nM, 25 μM NS4A cofactor, 0.5 μM substrate, 30° C., pH 7.5, model for competitive inhibition
T1 construct: full-length hepatitis C NS3 protease enzyme
Procedure: [Landro, 1997 #Biochem 36 9340-9348]. […] The solutions were stored at −20° C. between measurements.
[Liu, 1999 Analytical Biochemistry 267 331-335].

[3] = test system: HCV replicons (HCV type 1b, Huh-7 luc/neo cells); test: Replicon assay (Huh-Luc cells, luciferase read-out); format: cell-based; conditions: Hepatitis C virus, Huh-7, 72 h
Description: The compounds of formula (I) were examined for activity in the inhibition of HCV RNA replication in a cellular assay. […] The cellular assay was based on a bicistronic expression construct, as described by Lohmann et al. (1999) Science vol. 285 pp. 110-113 with modifications described by Krieger et al. (2001) Journal of Virology 75: 4614-4624, in a multi-target screening strategy. In essence, the method was as follows.
The assay utilized the stably transfected cell line Huh-7 luc/neo (hereafter referred to as Huh-Luc). This cell line harbors an RNA encoding a bicistronic expression construct comprising the wild type NS3-NS5B regions of HCV type 1b translated from an Internal Ribosome Entry Site (IRES) from encephalomyocarditis virus (EMCV), preceded by a reporter portion (FfL-luciferase), and a selectable marker portion (neo^R, neomycine phosphotransferase). The construct is bordered by 5′ and 3′ NTRs (non-translated regions) from HCV type 1b. Continued culture of the replicon cells in the presence of G418 (neo^R) is dependent on the replication of the HCV RNA. The stably transfected replicon cells that express HCV RNA, which replicates autonomously and to high levels, encoding inter alia luciferase, are used for screening the antiviral compounds.
The replicon cells were plated in 384 well plates in the presence of the test and control compounds which were added in various concentrations. Following an incubation of three days, HCV replication was measured by assaying luciferase activity (using standard luciferase assay substrates and reagents and a Perkin Elmer ViewLux™ ultraHTS microplate imager). Replicon cells in the control cultures have high luciferase expression in the absence of any inhibitor. The inhibitory activity of the compound on luciferase activity was monitored on the Huh-Luc cells, enabling a doseresponse curve for each test compound.

[4] = Huh-Luc cells, incubation of three days, luciferase activity

T1 sequence (P27958 1027-1657, one chain of several): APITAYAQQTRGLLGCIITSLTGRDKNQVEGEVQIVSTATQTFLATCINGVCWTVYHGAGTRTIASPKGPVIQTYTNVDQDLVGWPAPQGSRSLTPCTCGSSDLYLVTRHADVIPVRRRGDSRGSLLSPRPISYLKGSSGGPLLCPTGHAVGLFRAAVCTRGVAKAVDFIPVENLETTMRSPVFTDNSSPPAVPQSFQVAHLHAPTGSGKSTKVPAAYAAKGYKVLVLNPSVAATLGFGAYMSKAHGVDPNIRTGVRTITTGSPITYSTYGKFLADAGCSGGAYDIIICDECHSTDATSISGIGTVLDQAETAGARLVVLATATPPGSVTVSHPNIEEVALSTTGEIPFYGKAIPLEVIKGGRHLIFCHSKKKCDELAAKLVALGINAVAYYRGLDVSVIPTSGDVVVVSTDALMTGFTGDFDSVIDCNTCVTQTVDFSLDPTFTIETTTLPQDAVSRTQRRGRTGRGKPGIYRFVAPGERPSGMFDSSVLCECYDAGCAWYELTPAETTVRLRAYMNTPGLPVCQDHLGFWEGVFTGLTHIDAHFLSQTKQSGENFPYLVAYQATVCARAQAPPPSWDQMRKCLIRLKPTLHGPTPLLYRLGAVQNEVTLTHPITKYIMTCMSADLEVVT

Row | SMILES | Ki [2] [nM] | EC50 [3, 4] [nM] | other results
1 | CCOC(=O)C12CC1C=CCCCCN(C)C(=O)C1CC(Oc3nc(-c4nc(C5CC5)cs4)cc4cc(OC)ccc34)CC1C(=O)N2 (stereo not drawn) |  |  | ring closure, yield of all isomers ([1]; from C=CCCCCN(C)C(=O)C1CC(Oc2nc(-c3nc(C4CC4)cs3)cc3cc(OC)ccc23)CC1C(=O)NC1(C(=O)OCC)CC1C=C, 0.8 mM, 12.0 h): 85%
2 | CCOC(=O)C12CC1C=CCCCCN(C)C(=O)N1CC(OC(=O)c3ccc([N+](=O)[O-])cc3)CC1C(=O)N2 (stereo not drawn) |  |  | ring closure, yield of all isomers ([1]; from C=CCCCCN(C)C(=O)N1CC(OC(=O)c2ccc([N+](=O)[O-])cc2)CC1C(=O)NC1(C(=O)OCC)CC1C=C, 1.64 mM, 20.0 h): 51%
3 | CCOC(=O)C12CC1C=CCCCCN(C)C(=O)N1CC(Oc3nc(Cl)cc4cc(OC)ccc34)CC1C(=O)N2 (stereo not drawn) |  |  | ring closure, yield of all isomers ([1]; from C=CCCCCN(C)C(=O)N1CC(Oc2nc(Cl)cc3cc(OC)ccc23)CC1C(=O)NC1(C(=O)OCC)CC1C=C, 2.17 mM, 20.0 h): 58%
4 | CCOC(=O)C12CC1C=CCCCCN(C)C(=O)N1CC(Oc3ncc(Br)c4cc(OC)ccc34)CC1C(=O)N2 (stereo not drawn) |  |  | ring closure, yield of all isomers ([1]; from C=CCCCCN(C)C(=O)N1CC(Oc2ncc(Br)c3cc(OC)ccc23)CC1C(=O)NC1(C(=O)OCC)CC1C=C, 1.55 mM, 20.0 h): 38%
5 | COc1ccc2c(O[C@@H]3C[C@H]4C(=O)N[C@]5(C(=O)NS(=O)(=O)C6CC6)C[C@H]5/C=C\CCCCN(C)C(=O)N4C3)nccc2c1Br [Compound 51, N-[17-(5-bromo-6-methoxyisoquinolin-1-yloxy)-13-methyl-2,14-dioxo-3,13,15-triaza-tricyclo[13.3.0.0^4,6]octadec-7-ene-4-carbonyl](cyclopropyl)sulfonamide] | 1.7 | 58 | 
6 | COc1ccc2c(O[C@@H]3C[C@H]4C(=O)N[C@]5(C(=O)O)C[C@H]5/C=C\CCCCN(C)C(=O)N4C3)nccc2c1 [Compound 55, 17-(6-methoxyisoquinolin-1-yloxy)-13-methyl-2,14-dioxo-3,13,15-triaza-tricyclo[13.3.0.0^4,6]octadec-7-ene-4-carboxylic acid] | > 1000 | > 100000 | 
7 | COc1ccc2c(O[C@@H]3C[C@H]4C(=O)N[C@]5(C(=O)NS(=O)(=O)C6CC6)C[C@H]5/C=C\CCCCN(C)C(=O)N4C3)nc(-c3ccccc3)cc2c1 [Compound 56, N-[17-(3-phenyl-6-methoxyisoquinolin-1-yloxy)-13-methyl-2,14-dioxo-3,13,15-triaza-tricyclo[13.3.0.0^4,6]octadec-7-ene-4-carbonyl](cyclopropyl) sulfonamide] | 1.1 |  | EC50 [3]: 1030 nM
8 | COc1ccc2c(O[C@@H]3C[C@H]4C(=O)N[C@]5(C(=O)O)C[C@H]5/C=C\CCCCN(C)C(=O)N4C3)nc(-c3ccc(OC(F)(F)F)cc3)cc2c1 [Compound 57, 17-(3-(4-trifluoromethoxyphenyl)-6-methoxyisoquinolin-1-yloxy)-13-methyl-2,14-dioxo-3,13,15-triaza-tricyclo[13.3.0.0^4,6]octadec-7-ene-4-carboxylic acid] | 210 | 8090 | 
9 | COc1ccc2c(O[C@@H]3C[C@H]4C(=O)N[C@]5(C(=O)O)C[C@H]5/C=C\CCCCN(C)C(=O)N4C3)nc(-n3cccn3)cc2c1 [Compound 67, 17-(3-pyrazol-1-yl-6-methoxyisoquinolin-1-yloxy)-13-methyl-2,14-dioxo-3,13,15-triaza-tricyclo[13.3.0.0^4,6]octadec-7-ene-4-carboxylic acid] | > 1000 | > 10000 | 
10 | COc1ccc2c(O[C@@H]3C[C@H]4C(=O)N[C@]5(C(=O)NS(=O)(=O)C6CC6)C[C@H]5/C=C\CCCCN(C)C(=O)N4C3)nc(-n3cccn3)cc2c1 [Compound 68, N-[17-(3-pyrazol-1-yl-6-methoxyisoquinolin-1-yloxy)-13-methyl-2,14-dioxo-3,13,15-triaza-tricyclo[13.3.0.0^4,6]octadec-7-ene-4-carbonyl](cyclopropyl)sulfonamide] | 2.5 | 165 | 
11 | COc1ccc2c(O[C@@H]3C[C@H]4C(=O)N[C@]5(C(=O)NS(=O)(=O)C6CC6)C[C@H]5/C=C\CCCCN(C)C(=O)N4C3)nc(-c3nc(C(C)C)cs3)cc2c1 [Compound 70, N-[17-[3-(4-isopropylthiazol-2-yl)-6-methoxyisoquinolin-1-yloxy]-13-methyl-2,14-dioxo-3,13,15-triaza-tricyclo[13.3.0.0^4,6]octadec-7-ene-4-carbonyl](cyclopropyl)sulfonamide] | 33 | 6730 | 
